The values that follow come from patent publication US10703748B2, “Diazanaphthalen-3-yl carboxamides and preparation and use thereof” (Samumed, LLC, priority 2017, dated 2020).

Where two headings read alike, the source gives them in different places.

One test has as its target GSK3β kinase (Homo sapiens, UniProt P49841). As to the kind of experiment: GSK3β kinase activity (Ser/Thr 09 peptide Z-lyte FRET assay). It counts as biochemical. The note with it: recombinant kinase, 46 μM ATP, one hour at room temperature; read-out: EC50.
Test [1] has as its system Wnt-responsive Sp5-Luc reporter in SW480 colon carcinoma cells. The experiment in a line: Screening assay for Wnt activity (Sp5-Luc reporter gene assay). The note with it: Homo sapiens; for EC50: SW480; for inhibition at 10 µM: SW480, read-out: percent inhibition at 10 μM. Background: In a reporter assay the amount or activity of a reporter protein is the signal.
Method: The screening assay for Wnt activity is described as follows.
SW480 colon carcinoma cells were transduced with a lentiviral vector expressing luciferase with a human Sp5 promoter consisting of a sequence of eight TCF/LEF binding sites. […] These stably transduced SW480 cells were expanded in cell culture and used for all further screening activities. Each compound was dissolved in DMSO as a 10 mM stock and used to prepare compound source plates. Serial dilution (1:3, 10-point dose-response curves starting from 10 μM) and compound transfer was performed using the ECHO 550 (Labcyte, Sunnyvale, Calif.) into 384-well white solid bottom assay plates (Greiner Bio-One) with appropriate DMSO backfill for a final DMSO concentration of 0.1%. […] Following incubation, 15 μl of BriteLite Plus luminescence reagent (Perkin Elmer) was added to each well of the 384-well assay plates. The plates were placed on an orbital shaker for 2 min and then luminescence was quantified using the Envision (Perkin Elmer) plate reader.
The subject of test [2] is Tau phosphorylation at Ser396 (pSer396). As to the kind of experiment: Tau phosphorylation at Ser396 (pSer396) in SH-SY5Y cells, ELISA / western blot.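 Further: decrease in pSer396 Tau measured in lysates of treated cells by colorimetric ELISA or chemiluminescent western blot, same pSer396 antibody for both.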 It counts as cell-based, human. The note with it: Homo sapiens. For orientation: An ELISA detects its analyte on a solid surface through an enzyme-linked reagent.
Method: Two days before treatment, cells were seeded onto 96 well plates at 5×10^4 cells/well.
The above synthesized compounds were screened using the cell assay procedure to assess decrease Tau phosphorylation at Ser396 (pSer396) described below.
Cells were lysed with RIPA buffer complemented with phosphatase and protease inhibitors then lysates were spun down at 12,000 g for 10 min to remove any cellular debris.
The subject of test [3] is SW480 colon carcinoma cells. As to the kind of experiment: Cell viability assay (CellTiter-Glo). The note with it: Homo sapiens; for EC50: SW480, 96 h; for inhibition at 10 µM: SW480, read-out: percent inhibition at 10 μM. (In general: ATP-based viability assays read luminescence as a measure of living cells.)
For a further test, the system named is IL-6. The experiment in a line: IL-6 inhibition in LPS-stimulated human peripheral blood mononuclear cells (HTRF). The note with it: Homo sapiens, PBMC; for EC50: 22 h; for inhibition at 10 µM: read-out: percentage in parentheses after EC50 >10.
In the next test the target is DYRK1A kinase (Homo sapiens, UniProt Q13627). The experiment in a line: DYRK1A kinase activity (Ser/Thr 18 peptide Z-lyte FRET assay).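 Further: kinase activity read as coumarin/fluorescein emission ratio after development step, with unphosphorylated and phosphorylated peptide forms setting 0% and 100% controls, values from dose-response curves.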 It counts as biochemical. The note with it: recombinant DYRK1A, 30 μM ATP, one hour at room temperature.
Test [4] has as its system α-smooth muscle actin (aSMA) positive LL29 cells. As to the kind of experiment: Inhibition of the fibrotic process: αSMA staining in TGF-β1 treated LL29 fibroblasts from IPF patients. The following applies: Homo sapiens, Fibroblast; for EC50: 96 h; for inhibition at 10 µM: read-out: percentage in parentheses after EC50 >10.
Method: Each compound was dissolved in DMSO as a 10 mM stock and used to prepare compound source plates. […] LL29 cells were plated at 1,500 cells/well in 70 μL/well F12 medium supplemented with 1% Fetal Bovine Serum. […] Wells treated with TGF-β1 and containing DMSO were used as positive control, and cells with only DMSO were negative control. Cells were incubated at 37° C. and 5% CO2 for 4 days. Following incubation for 4 days, SYTOX green nucleic acid stain (Life Technologies [Thermo Fisher Scientific]) was added to the wells at a final concentration of 1 μM and incubated at room temperature for 30 min. Cells were then fixed using 4% formaldehyde (Electron Microscopy Sciences), washed 3 times with PBS followed by blocking and permeabilization using 3% Bovine Serum Albumin (BSA; Sigma) and 0.3% Triton X-100 (Sigma) in PBS.
Test [5] concerns secreted cytokines TNFα, IL-6 and KC-GRO. The experiment in a line: Secreted cytokines in Lipopolysaccharide-stimulated BV-2 cells (Table 9 does not say which cytokine). The note with it: Mus musculus, BV-2, 5 h; read-out: EC50. It counts as cell-based, mouse.
The mark [6] stands for this setting: SH-SY5Y cells, overnight (16-18 h), read-out: pSer396 Tau EC50.

Chain of GSK3β kinase (P49841 whole entry): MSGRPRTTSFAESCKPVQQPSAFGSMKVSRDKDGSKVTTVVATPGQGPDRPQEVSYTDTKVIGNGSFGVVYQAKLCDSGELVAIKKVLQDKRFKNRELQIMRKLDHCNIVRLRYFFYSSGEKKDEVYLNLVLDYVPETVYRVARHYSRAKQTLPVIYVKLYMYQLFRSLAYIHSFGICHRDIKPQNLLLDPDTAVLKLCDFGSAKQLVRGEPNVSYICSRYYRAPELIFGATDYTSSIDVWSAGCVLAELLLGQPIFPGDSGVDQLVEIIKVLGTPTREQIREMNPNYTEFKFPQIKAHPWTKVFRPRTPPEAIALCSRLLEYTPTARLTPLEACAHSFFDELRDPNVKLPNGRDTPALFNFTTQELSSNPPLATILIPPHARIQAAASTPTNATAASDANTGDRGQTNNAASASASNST

Consider `C[C@H]1CCCN1CC(=O)Nc1ncc2ccc(-c3cnn(C)c3)cc2n1` [Compound 954, (S)—N-(7-(1-Methyl-1H-pyrazol-4-yl)quinazolin-2-yl)-2-(2-methylpyrrolidin-1-yl)acetamide], for which the concentration giving a half-maximal response (EC50) – broadly, the midpoint of the concentration-response curve – at GSK3β kinase is 195 nM; in test [1] it was more than 10000 nM; in test [2] (setting [6]), 1700 nM; in test [3], more than 10000 nM; in the test with IL-6, more than 10000 nM; at DYRK1A kinase it was 69 nM. Besides, the midpoint of the response in test [4], the EC50, lay at 2140 nM. In addition, the results for the inhibition at 10 µM (in test [1]; in test [3]; in the test on IL-6) were 29.6%, 45.1% and 5.7%, respectively.

For `COc1ccc2c(c1)[nH]c1c(C)nccc12` [Harmine, reference compound], the concentration giving a half-maximal response (EC50) in test [2] (SH-SY5Y, read-out: EC50 in the Tau assay) was more than 10000 nM.

Regarding `COC1CCN(CC(=O)Nc2ncc3ccc(-c4cn(C)nn4)cc3n2)CC1` [Compound 1264, 2-(4-Methoxypiperidin-1-yl)-N-(7-(1-methyl-1H-1,2,3-triazol-4-yl)quinazolin-2-yl)acetamide], the EC50 on GSK3β kinase is 17 nM; in test [1] it was 9710 nM; in test [2] (setting [6]), 902 nM; in test [3] it was more than 10000 nM; in the test on IL-6, more than 10000 nM; on DYRK1A kinase, 43 nM. The same compound gave an EC50 in test [4] of more than 10000 nM. Moreover, the inhibition at 10 µM in test [3] was found to be 27.8%; in the test on IL-6 it was 7.9%; in test [4], 5.7%.

Regarding `Cc1nnc(-c2cc3cc(NC(=O)C4CCN(C(=O)c5ccccc5)CC4)ncc3cn2)s1` [Compound 4346, 1-Benzoyl-N-(6-(5-methyl-1,3,4-thiadiazol-2-yl)-2,7-naphthyridin-3-yl) piperidine-4-carboxamide], the EC50 on GSK3β kinase was 135 nM; in test [1] it was more than 10000 nM; in test [2] (setting [6]) it was 1540 nM; in test [3], more than 10000 nM; with IL-6 it was more than 10000 nM; at DYRK1A kinase, 37 nM. This compound gave a half-maximal effective concentration (EC50) in test [4] of more than 10000 nM. Also, the inhibition at 10 µM stood at 3.8% in test [1], 12.2% in test [3], 2.4% with IL-6 and 21.4% in test [4].

For `Cn1cc(-c2ccc3cnc(NC(=O)c4ccc(OC5CCNCC5)cc4)nc3c2)nn1` [Compound 4573, N-(7-(1-Methyl-1H-1,2,3-triazol-4-yl)quinazolin-2-yl)-4-(piperidin-4-yloxy) benzamide], the EC50 was 161 nM on GSK3β kinase; 3230 nM in test [1]; 10000 nM in test [2] (setting [6]); 2700 nM in test [3]; more than 10000 nM in the test with IL-6; 6 nM at DYRK1A kinase. In test [4], this compound displayed an EC50 of more than 10000 nM. Besides, the inhibition at 10 µM was found to be 9.6% with IL-6 and 9.3% in test [4].

`Cn1ncc(-c2cc3cc(NC(=O)c4ccnc(N5CCOCC5)c4)ncc3cn2)c1CN1CCOCC1` [Compound 3941, N-(6-(1-methyl-5-(morpholinomethyl)-1H-pyrazol-4-yl)-2,7-naphthyridin-3-yl)-2-morpholinoisonicotinamide]: the concentration giving a half-maximal response (EC50) on GSK3β kinase is 79 nM; in test [1] it was 1340 nM; in test [2] (setting [6]), 571 nM; in test [3] it was 2380 nM; in the test on IL-6, more than 10000 nM; at DYRK1A kinase, 6 nM. The compound also yielded a concentration for a half-maximal effect (EC50) in test [4] of 1190 nM. Besides, in the test with IL-6, the inhibition at 10 µM was determined as 5.5%.

`O=C(Nc1ncc2ccc(-c3cncc(NCC4(F)CNC4)n3)cc2n1)C1CC1` [Compound 1777, N-(7-(6-(((3-Fluoroazetidin-3-yl)methyl)amino)pyrazin-2-yl)quinazolin-2-yl)cyclopropanecarboxamide]: the concentration for a half-maximal effect (EC50) is 98 nM at GSK3β kinase; more than 10000 nM in test [1]; 10000 nM in test [2] (setting [6]); more than 10000 nM in test [3]; more than 10000 nM in the test on IL-6; 5 nM at DYRK1A kinase. This compound yielded an EC50 in test [4] of more than 10000 nM. The inhibition at 10 µM in test [1] amounted to 35.4%; in test [3], 27.6%; with IL-6 it was 2.4%; in test [4], 41.1%.

Consider `O=C(Nc1ncc2ccc(-c3cncc(N[C@H]4CCNC[C@@H]4F)n3)cc2n1)C1CC1` [Compound 1785, N-(7-(6-(((3S,4S)-3-Fluoropiperidin-4-yl)amino)pyrazin-2-yl)quinazolin-2-yl)cyclopropanecarboxamide], for which the EC50 at GSK3β kinase was 135 nM; in test [1], 4270 nM; in test [2] (setting [6]), 5660 nM; in test [3], more than 10000 nM; in the test on IL-6, more than 10000 nM; at DYRK1A kinase it was 7 nM. Further, the concentration giving a half-maximal response (EC50) in test [4] stood at 4000 nM. Moreover, the inhibition at 10 µM in test [3] came to 34.3%; in the test with IL-6, 8.9%.

`O=C(Nc1cc2nc(-c3cncc(NC4CCNCC4)n3)ccc2cn1)C1CCOCC1` [Compound 877, N-(2-(6-(Piperidin-4-ylamino)pyrazin-2-yl)-1,6-naphthyridin-7-yl)tetrahydro-2H-pyran-4-carboxamide]: the EC50 is 2700 nM in test [5]; 9920 nM on GSK3β kinase; more than 10000 nM in test [1]; more than 10000 nM in test [3]; more than 10000 nM with IL-6; 16 nM at DYRK1A kinase. In test [4], this compound had an EC50 of more than 10000 nM. The inhibition at 10 µM in test [1] is 0%; in test [3] it was 11.7%; in the test on IL-6 it was 6.8%; in test [4], 23.6%.

On to `Cc1ncc(C(=O)Nc2ncc3ccc(-c4cnc(C)n4C)cc3n2)s1` [Compound 1353, N-(7-(1,2-Dimethyl-1H-imidazol-5-yl)quinazolin-2-yl)-2-methylthiazole-5-carboxamide], for which the EC50 in test [5] is 812 nM; at GSK3β kinase, 1350 nM; in test [1], 2180 nM; in test [3], 4480 nM; with IL-6 it was more than 10000 nM; at DYRK1A kinase it was 11 nM. The compound further registered an EC50 in test [4] of more than 10000 nM. Further, the results for the inhibition at 10 µM (in the test on IL-6; in test [4]) were 4.1% and 42%, respectively.

In the case of `CO[C@H]1CC[C@H](C(=O)Nc2cc3cc(-c4nnc(C)s4)ncc3cn2)CC1` [Compound 4332, trans-4-Methoxy-N-(6-(5-methyl-1,3,4-thiadiazol-2-yl)-2,7-naphthyridin-3-yl)cyclohexane-1-carboxamide], the EC50 in test [5] was more than 10000 nM; at GSK3β kinase it was 828 nM; in test [1] it was more than 10000 nM; in test [3] it was more than 10000 nM; with IL-6 it was more than 10000 nM; at DYRK1A kinase, 48 nM. In test [4], this compound had an EC50 of more than 10000 nM. Further, the inhibition at 10 µM is 9.6% in test [1], 16.5% in test [3], 0% in the test with IL-6 and 23.6% in test [4].

`CN1CCN(c2cc(C(=O)Nc3ncc4ccc(-c5cnn(C)c5N)cc4n3)ccn2)CC1` [Compound 1210, N-(7-(5-Amino-1-methyl-1H-pyrazol-4-yl)quinazolin-2-yl)-2-(4-methylpiperazin-1-yl)isonicotinamide]: the EC50 in test [5] was 1100 nM; at GSK3β kinase it was more than 10000 nM; in test [1], 478 nM; in test [3], 695 nM; in the test with IL-6, 3610 nM; at DYRK1A kinase it was 4 nM. In test [4], this compound came in with an EC50 of 1400 nM.

`CN(C)CCNc1cc(C(=O)Nc2cc3cc(-c4cnn(C)c4)ncc3cn2)ccn1` [Compound 3791, 2-((2-(Dimethylamino)ethyl)amino)-N-(6-(1-methyl-1H-pyrazol-4-yl)-2,7-naphthyridin-3-yl)isonicotinamide]: the EC50 in test [5] is 3900 nM; on GSK3β kinase, 1350 nM; in test [1] it was 482 nM; in test [3], 3420 nM; with IL-6, more than 10000 nM; on DYRK1A kinase, 10 nM. This compound yielded a half-maximal effective concentration (EC50) in test [4] of 4950 nM. For the same compound, the inhibition at 10 µM in the test on IL-6 came to 0%.

As to `CN1CCN(c2cc(C(=O)Nc3ncc4ccc(-c5cnn(C)c5)cc4n3)ccn2)CC1` [Compound 1054, N-(7-(1-Methyl-1H-pyrazol-4-yl)quinazolin-2-yl)-2-(4-methylpiperazin-1-yl) isonicotinamide], the EC50 in test [5] came out at 1200 nM; on GSK3β kinase, 3650 nM; in test [1], 468 nM; in test [3], 719 nM; in the test with IL-6 it was 3930 nM; at DYRK1A kinase, 8 nM. This compound came in with a half-maximal effective concentration (EC50) in test [4] of 2340 nM.

In the case of `Cc1nnc(-c2ccc3cnc(NC(=O)CN4C[C@@H]5C[C@H]4CO5)nc3c2)s1` [Compound 4593, 2-((1S,4S)-2-Oxa-5-azabicyclo[2.2.1]heptan-5-yl)-N-(7-(5-methyl-1,3,4-thiadiazol-2-yl)quinazolin-2-yl)acetamide], the EC50 in test [5] was 2500 nM; at GSK3β kinase, 34 nM; in test [1] it was more than 10000 nM; in test [3], more than 10000 nM; in the test with IL-6, more than 10000 nM; at DYRK1A kinase it was 131 nM. For the same compound, the EC50 in test [4] is more than 10000 nM. Further, the inhibition at 10 µM stood at 32.8% in test [1], 27.4% in test [3], 4.8% in the test on IL-6 and 41.4% in test [4].
